According to patent publication EP1145713A1, “TELOMERASE INHIBITORS” (KYOWA HAKKO KOGYO CO., LTD., priority 1999, dated 2000):

Legend:
[1] = test system: human leukemia cell line CCRF-CEM; test: Telomerase inhibitory activity in cell system (Test Example 3, TRAP assay of cell extract); type: cell-based
Description: After a test compound was allowed to contact with human leukemia cell line CCRF-CEM for 7 days, a cell extraction solution was prepared and the enzyme activity was measured by a known method (U.S. Patent 5,629,154). That is, the cell extraction solution was prepared using a buffer solution containing 0.5% CHAPS {3-[(3-cholamidopropyl)dimethylammonio]-1-propanesulfonate}. using the extraction solution, TRAP (Telomeric Repeat Amplification Protocol) assay was carried out (TRAPEZE™ ELISA Telomerase Detection Kit, manufactured by Oncor Co.) Inhibitory ratio was calculated based on the ratio of the enzyme activity in the extraction solution from the cells treated with the test compound relative to the enzyme activity in the extraction solution from the test compound-untreated cells.

[2] = test system: human leukemia cell line CCRF-CEM; test: Induction of the reduction of telomere in cell system (Test Example 4); type: cell-based
Description: After a test compound was. allowed to contact with human leukemia cell line CCRF-CEM for 21 days, a chromosomal DNA was extracted and the telomere length was measured by a known method (Biotechniques, 23: 476-484 (1997)). That is, the extracted chromosomal DNA was adsorbed on a membrane, and hybridization was carried out by using a labeled oligonucleotide probe having a sequence complementary to the telomere sequence. The signal of the label on the membrane proportional to the telomere DNA length was detected and digitalized.

[3] = contact for 7 days, 8.9, 13 µmol/L
[4] = contact for 21 days, 13, 30 µmol/L
[5] = contact for 7 days, 2, 4.4 µmol/L
[6] = contact for 21 days, 2, 4.4 µmol/L

SMILES | cytotoxicity [1, 3] | inhibition of intracellular telomerase [1, 3] | cytotoxicity [2, 4] | telomere reduction [2, 4] | cytotoxicity [1, 5] | inhibition of intracellular telomerase [1, 5] | cytotoxicity ([1]; contact for 7 days, concentrations higher than 4.4 µmol/L) | cytotoxicity [2, 6] | telomere reduction [2, 6] | cytotoxicity ([2]; contact for 21 days, concentrations higher than 4.4 µmol/L)
CC1=C(CCC(=O)O)c2cc3[nH]c(cc4nc(cc5[nH]c(cc1n2)c(CCC(=O)O)c5C)C(C)=C4CCC(=O)O)c(CCC(=O)O)c3C [Compound 1] | no remarkable cytotoxicity was shown | inhibited intracellular telomerase | no remarkable cytotoxicity was shown | induced telomere reduction |  |  |  |  |  | 
C[n+]1ccc(-c2c3nc(c(-c4cc[n+](C)cc4)c4ccc([nH]4)c(-c4cc[n+](C)cc4)c4nc(c(-c5cc[n+](C)cc5)c5ccc2[nH]5)C=C4)C=C3)cc1 [TMPyP4] |  |  |  |  | no remarkable cytotoxicity was shown | did not inhibit telomerase | no cellular protein was recovered at higher concentrations because of the cytotoxicity | no remarkable cytotoxicity was shown | did not induce telomere reduction | no chromosomal DNA was recovered at higher concentrations because of the cytotoxicity
